Data: patent US20230085307A1, “PYRIDAZINONE COMPOUND AND HERBICIDE” (NISSAN CHEMICAL CORPORATION, priority 2019, published 2023)

What was measured:
[1] = tested on: wild oat; assay: Test Example 4: herbicidal effect by soil treatment (Table 19, symbol I); assay type: in vivo, wild oat (Avena fatua); conditions: amount of applied herbicide 320 g/ha
Procedure, shortened: (§1)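 In this soil treatment, the formulated compound reached the seeds only through the soil: seeds were buried about 1.5 cm deep in sterilized diluvial soil, then the diluted emulsion was sprayed over the surface. After three weeks at 25° C. to 30° C. in a greenhouse, effects were graded on criteria from an earlier test.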

[2] = tested on: Italian ryegrass; assay: Test Example 4: herbicidal effect by soil treatment (Table 19, symbol K); assay type: in vivo, Italian ryegrass (Lolium multiflorum); conditions: amount of applied herbicide 320 g/ha
Procedure, shortened: as §1

[3] = tested on: redroot pigweed; assay: Test Example 4: herbicidal effect by soil treatment (Table 19, symbol N); assay type: in vivo, redroot pigweed (Amaranthus retroflexus); conditions: amount of applied herbicide 320 g/ha
Procedure, shortened: as §1

[4] = tested on: velvetleaf; assay: Test Example 5: herbicidal effect by foliage application, plastic box (Table 20, symbol M); assay type: in vivo, velvetleaf (Abutilon theophrasti); conditions: evaluated three weeks after application
Procedure, shortened: (§2)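 Plants were sown into sterilized diluvial soil under about 1.5 cm cover and kept in a greenhouse at 25° C. to 30° C. Fourteen days on, foliage received an even spray of the diluted emulsion. Herbicidal or crop effect was judged three weeks afterwards.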

[5] = tested on: barnyard grass; assay: Test Example 5: herbicidal effect by foliage application, plastic box (Table 20, symbol H); assay type: in vivo, barnyard grass (Echinochloa crus-galli); conditions: evaluated three weeks after application
Procedure, shortened: as §2

[6] = tested on: Italian ryegrass; assay: Test Example 5: herbicidal effect by foliage application, plastic box (Table 20, symbol K); assay type: in vivo, Italian ryegrass (Lolium multiflorum); conditions: evaluated three weeks after application
Procedure, shortened: as §2

[7] = tested on: chickweed; assay: Test Example 4: herbicidal effect by soil treatment (Table 19, symbol P); assay type: in vivo, common chickweed (Stellaria media); conditions: amount of applied herbicide 320 g/ha
Procedure, shortened: as §1

[8] = tested on: persian speedwell; assay: Test Example 5: herbicidal effect by foliage application, plastic box (Table 20, symbol R); assay type: in vivo, Persian speedwell (Veronica persica); conditions: evaluated three weeks after application
Procedure, shortened: as §2

[9] = tested on: windgrass; assay: Test Example 4: herbicidal effect by soil treatment (Table 19, symbol L); assay type: in vivo, windgrass (Apera spica-venti); conditions: amount of applied herbicide 320 g/ha
Procedure, shortened: as §1

[10] = tested on: green foxtail; assay: Test Example 5: herbicidal effect by foliage application, plastic box (Table 20, symbol G); assay type: in vivo, green foxtail (Setaria viridis); conditions: evaluated three weeks after application
Procedure, shortened: as §2

[11] = tested on: Chinese sprangletop; assay: Test Example 3: herbicidal effect by foliage application, Wagner pot (Table 18, symbol D); assay type: in vivo, chinese sprangletop (Leptochloa chinensis)
Procedure, shortened: (§3)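 Plants were sown in alluvial soil held under 0.1–0.5 cm standing water and grown 14 days in a greenhouse at 25–30 °C. An emulsifiable formulation, water-diluted to the set dose, was then sprayed onto the foliage, and effects were scored three weeks later using previously defined criteria.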

[12] = tested on: blackgrass; assay: Test Example 4: herbicidal effect by soil treatment (Table 19, symbol J); assay type: in vivo, blackgrass (Alopecurus myosuroides); conditions: amount of applied herbicide 320 g/ha
Procedure, shortened: as §1

[13] = tested on: false cleavers; assay: Test Example 5: herbicidal effect by foliage application, plastic box (Table 20, symbol Q); assay type: in vivo, false cleavers (Galium spurium); conditions: evaluated three weeks after application
Procedure, shortened: as §2

[14] = tested on: velvetleaf; assay: Test Example 4: herbicidal effect by soil treatment (Table 19, symbol M); assay type: in vivo, velvetleaf (Abutilon theophrasti); conditions: amount of applied herbicide 320 g/ha
Procedure, shortened: as §1

[15] = tested on: redroot pigweed; assay: Test Example 5: herbicidal effect by foliage application, plastic box (Table 20, symbol N); assay type: in vivo, redroot pigweed (Amaranthus retroflexus); conditions: evaluated three weeks after application
Procedure, shortened: as §2

[16] = tested on: blackgrass; assay: Test Example 5: herbicidal effect by foliage application, plastic box (Table 20, symbol J); assay type: in vivo, blackgrass (Alopecurus myosuroides); conditions: evaluated three weeks after application
Procedure, shortened: as §2

[17] = tested on: southern crabgrass; assay: Test Example 4: herbicidal effect by soil treatment (Table 19, symbol F); assay type: in vivo, southern crabgrass (Digitaria ciliaris); conditions: amount of applied herbicide 320 g/ha
Procedure, shortened: as §1

[18] = tested on: barnyard grass; assay: Test Example 3: herbicidal effect by foliage application, Wagner pot (Table 18, symbol H); assay type: in vivo, barnyard grass (Echinochloa crus-galli)
Procedure, shortened: as §3

[19] = tested on: lambsquarters; assay: Test Example 4: herbicidal effect by soil treatment (Table 19, symbol O); assay type: in vivo, lambsquarters (Chenopodium album); conditions: amount of applied herbicide 320 g/ha
Procedure, shortened: as §1

[20] = tested on: green foxtail; assay: Test Example 4: herbicidal effect by soil treatment (Table 19, symbol G); assay type: in vivo, green foxtail (Setaria viridis); conditions: amount of applied herbicide 320 g/ha
Procedure, shortened: as §1

[21] = tested on: windgrass; assay: Test Example 5: herbicidal effect by foliage application, plastic box (Table 20, symbol L); assay type: in vivo, windgrass (Apera spica-venti); conditions: evaluated three weeks after application
Procedure, shortened: as §2

[22] = tested on: lambsquarters; assay: Test Example 5: herbicidal effect by foliage application, plastic box (Table 20, symbol O); assay type: in vivo, lambsquarters (Chenopodium album); conditions: evaluated three weeks after application
Procedure, shortened: as §2

[23] = tested on: persian speedwell; assay: Test Example 4: herbicidal effect by soil treatment (Table 19, symbol R); assay type: in vivo, Persian speedwell (Veronica persica); conditions: amount of applied herbicide 320 g/ha
Procedure, shortened: as §1

[24] = tested on: chickweed; assay: Test Example 5: herbicidal effect by foliage application, plastic box (Table 20, symbol P); assay type: in vivo, common chickweed (Stellaria media); conditions: evaluated three weeks after application
Procedure, shortened: as §2

[25] = tested on: southern crabgrass; assay: Test Example 5: herbicidal effect by foliage application, plastic box (Table 20, symbol F); assay type: in vivo, southern crabgrass (Digitaria ciliaris); conditions: evaluated three weeks after application
Procedure, shortened: as §2

[26] = tested on: wild oat; assay: Test Example 5: herbicidal effect by foliage application, plastic box (Table 20, symbol I); assay type: in vivo, wild oat (Avena fatua); conditions: evaluated three weeks after application
Procedure, shortened: as §2

[27] = tested on: barnyard grass; assay: Test Example 4: herbicidal effect by soil treatment (Table 19, symbol H); assay type: in vivo, barnyard grass (Echinochloa crus-galli); conditions: amount of applied herbicide 320 g/ha
Procedure, shortened: as §1

[28] = tested on: rice flat sedge; assay: Test Example 3: herbicidal effect by foliage application, Wagner pot (Table 18, symbol E); assay type: in vivo, rice flat sedge (Cyperus iria); conditions: 320 g/ha
Procedure, shortened: as §3

[29] = foliage application, AAH 320 g/ha
[30] = amount of applied herbicide 320 g/ha
[31] = amount of applied herbicide 320 g/ha, foliage application after 14-day growth

## Cc1nn(C)c(=O)c(-c2c(-c3ccc(S(=O)(=O)C(C)C)cc3)sc3ccc(F)cc23)c1O [2-259]
[1]
  herbicidal effect on I: wild oat: 0 (Herbicidal rate of 5% or less (almost no effect))
[2]
  herbicidal effect on K: Italian ryegrass: 4 (Herbicidal rate of 70% or more and less than 90%)
[3]
  herbicidal effect on N: redroot pigweed: 4 (Herbicidal rate of 70% or more and less than 90%)
[4]; [29]
  M: velvetleaf, herbicidal effect (criteria 0-5): 4 (Herbicidal rate of 70% or more and less than 90%)
[5]; [29]
  H: barnyard grass, herbicidal effect (criteria 0-5): 3 (Herbicidal rate of 40% or more and less than 70%)
[6]; [29]
  K: Italian ryegrass, herbicidal effect (criteria 0-5): 4 (Herbicidal rate of 70% or more and less than 90%)
[7]
  herbicidal effect on P: chickweed: 1 (Herbicidal rate of 5% or more and less than 20%)
[8]; [29]
  R: persian speedwell, herbicidal effect (criteria 0-5): 5 (Herbicidal rate of 90% or more (almost completely withered))
[9]
  herbicidal effect on L: windgrass: 0 (Herbicidal rate of 5% or less (almost no effect))
[10]; [29]
  G: green foxtail, herbicidal effect (criteria 0-5): 3 (Herbicidal rate of 40% or more and less than 70%)
[11]; [30]
  herbicidal effect on D: Chinese sprangletop: 3 (Herbicidal rate of 40% or more and less than 70%)
[12]
  herbicidal effect on J: blackgrass: 4 (Herbicidal rate of 70% or more and less than 90%)
[13]; [29]
  Q: false cleavers, herbicidal effect (criteria 0-5): 4 (Herbicidal rate of 70% or more and less than 90%)
[14]
  herbicidal effect on M: velvetleaf: 3 (Herbicidal rate of 40% or more and less than 70%)
[15]; [29]
  N: redroot pigweed, herbicidal effect (criteria 0-5): 5 (Herbicidal rate of 90% or more (almost completely withered))
[16]; [29]
  J: blackgrass, herbicidal effect (criteria 0-5): 4 (Herbicidal rate of 70% or more and less than 90%)
[17]
  herbicidal effect on F: southern crabgrass: 0 (Herbicidal rate of 5% or less (almost no effect))
[18]; [30]
  herbicidal effect on H: barnyard grass: 4 (Herbicidal rate of 70% or more and less than 90%)
[19]
  herbicidal effect on O: lambsquarters: 3 (Herbicidal rate of 40% or more and less than 70%)
[20]
  herbicidal effect on G: green foxtail: 1 (Herbicidal rate of 5% or more and less than 20%)
[21]; [29]
  L: windgrass, herbicidal effect (criteria 0-5): 1 (Herbicidal rate of 5% or more and less than 20%)
[22]; [29]
  O: lambsquarters, herbicidal effect (criteria 0-5): 4 (Herbicidal rate of 70% or more and less than 90%)
[23]
  herbicidal effect on R: persian speedwell: 5 (Herbicidal rate of 90% or more (almost completely withered))
[24]; [29]
  P: chickweed, herbicidal effect (criteria 0-5): 5 (Herbicidal rate of 90% or more (almost completely withered))
[25]; [29]
  F: southern crabgrass, herbicidal effect (criteria 0-5): 4 (Herbicidal rate of 70% or more and less than 90%)
[26]; [29]
  I: wild oat, herbicidal effect (criteria 0-5): 4 (Herbicidal rate of 70% or more and less than 90%)
[27]
  herbicidal effect on H: barnyard grass: 0 (Herbicidal rate of 5% or less (almost no effect))

## CCCC(=O)Oc1c(C)nn(C)c(=O)c1-c1c(-c2ccc(F)cc2)sc2cc(F)c(F)cc12 [5-002]
[1]
  I: wild oat, herbicidal effect grade: 3 (Herbicidal rate of 40% or more and less than 70%)
[2]
  K: Italian ryegrass, herbicidal effect grade: 5 (Herbicidal rate of 90% or more (almost completely withered))
[3]
  N: redroot pigweed, herbicidal effect grade: 5 (Herbicidal rate of 90% or more (almost completely withered))
[4]; [31]
  Herbicidal effect by foliage application, M: velvetleaf: 5 (Herbicidal rate of 90% or more (almost completely withered))
[5]; [31]
  Herbicidal effect by foliage application, H: barnyard grass: 4 (Herbicidal rate of 70% or more and less than 90%)
[6]; [31]
  Herbicidal effect by foliage application, K: Italian ryegrass: 5 (Herbicidal rate of 90% or more (almost completely withered))
[7]
  P: chickweed, herbicidal effect grade: 4 (Herbicidal rate of 70% or more and less than 90%)
[8]; [31]
  Herbicidal effect by foliage application, R: persian speedwell: 5 (Herbicidal rate of 90% or more (almost completely withered))
[9]
  L: windgrass, herbicidal effect grade: 5 (Herbicidal rate of 90% or more (almost completely withered))
[10]; [31]
  Herbicidal effect by foliage application, G: green foxtail: 5 (Herbicidal rate of 90% or more (almost completely withered))
[11]; 320 g/ha
  herbicidal effect on Chinese sprangletop (D): 3 (Herbicidal rate of 40% or more and less than 70%)
[12]
  J: blackgrass, herbicidal effect grade: 2 (Herbicidal rate of 20% or more and less than 40%)
[13]; [31]
  Herbicidal effect by foliage application, Q: false cleavers: 5 (Herbicidal rate of 90% or more (almost completely withered))
[14]
  M: velvetleaf, herbicidal effect grade: 3 (Herbicidal rate of 40% or more and less than 70%)
[15]; [31]
  Herbicidal effect by foliage application, N: redroot pigweed: 5 (Herbicidal rate of 90% or more (almost completely withered))
[16]; [31]
  Herbicidal effect by foliage application, J: blackgrass: 4 (Herbicidal rate of 70% or more and less than 90%)
[17]
  F: southern crabgrass, herbicidal effect grade: 0 (Herbicidal rate of 5% or less (almost no effect))
[18]; 320 g/ha
  herbicidal effect on barnyard grass (H): 4 (Herbicidal rate of 70% or more and less than 90%)
[19]
  O: lambsquarters, herbicidal effect grade: 5 (Herbicidal rate of 90% or more (almost completely withered))
[20]
  G: green foxtail, herbicidal effect grade: 4 (Herbicidal rate of 70% or more and less than 90%)
[21]; [31]
  Herbicidal effect by foliage application, L: windgrass: 5 (Herbicidal rate of 90% or more (almost completely withered))
[22]; [31]
  Herbicidal effect by foliage application, O: lambsquarters: 5 (Herbicidal rate of 90% or more (almost completely withered))
[23]
  R: persian speedwell, herbicidal effect grade: 5 (Herbicidal rate of 90% or more (almost completely withered))
[24]; [31]
  Herbicidal effect by foliage application, P: chickweed: 5 (Herbicidal rate of 90% or more (almost completely withered))
[25]; [31]
  Herbicidal effect by foliage application, F: southern crabgrass: 5 (Herbicidal rate of 90% or more (almost completely withered))
[26]; [31]
  Herbicidal effect by foliage application, I: wild oat: 4 (Herbicidal rate of 70% or more and less than 90%)
[27]
  H: barnyard grass, herbicidal effect grade: 3 (Herbicidal rate of 40% or more and less than 70%)
[28]
  herbicidal effect on rice flat sedge (E): 0 (Herbicidal rate of 5% or less (almost no effect))
